# Laboratory results: patent US20260053764A1, “COMPOSITION FOR PREVENTING DETERIORATION IN COGNITIVE FUNCTION AND/OR IMPROVING COGNITIVE FUNCTION” (PHARMA FOODS INTERNATIONAL CO., LTD., priority 2020, published 2026)
# System: health-associated QOL in a human
# Assay: SF-36 health-associated QOL assessment in clinical tests A and B
# Assay type: in vivo
# Set-up: key to General health / Vitality / Mental health: SF-36 subscale score; higher score = better health state
# Conditions: for Everyday role function (mental) / Everyday role function (physical) / General health / Mental health / Physical function / Vitality: mean ± SD
# Excerpt: SF-36 is known as a QOL assessment method associated with health, wherein SF-36 (MOS 36-Item Short-Form Health Survey) is a self-report type health state questionnaire that can rate eight health concepts (physical function, everyday role function (physical), body pain, general health, vitality, social function, everyday role function (mental) and mental health) as scores. A high score of each health concept (subscale) in SF-36 is interpreted as shown below. • Physical function . . . Capable of carrying out every type of activity including vigorous activity. • Everyday role function (physical) . . . There was no physical problem when carrying out work or normal activity during the past month. • Body pain . . . There was no body pain at all during the past month and usual work was not interfered by body pain at all. • General health . . . Health state is very good. • Vitality . . . Always full of energy during the past month. • Social life function . . . The usual social interactions with family, friends, neighbors and other companions were not at all interfered by any physical or psychological reason. • Everyday role function (mental) . . . There was no psychological problem when carrying out work or normal activity during the past month. • Mental health . . . The subject was in a calm, happy and peaceful mood during the past month.
# Two types of placebo-controlled randomized double-blind two-group parallel comparison tests were carried out as clinical tests. […] Specifically, capsules comprising 100 mg of dextrin per capsule were used as the placebo food.
# The screening examination was carried out to select 60 subjects for each test (a total of 120 subjects). MMSE (Mini Mental State Examination) is an examination for assessing the degree of progression of dementia or the like based on the score thereof with 30 as the perfect score, wherein dementia is suspected with a score of 23 or lower.
# The total of 120 subjects were randomly divided into test A active group, test A placebo group, test B active group and test B placebo group with 30 subjects in each group. Each subject of the test A active group ingested two capsules of the active food, each subject of the test A placebo group ingested two capsules of the placebo food, each subject of the test B active group ingested one capsule of the active food and each subject of the test B placebo group ingested one capsule of the placebo food.
# Each subject followed the schedule shown in the table below and ingested one or two of the assigned capsules together with water for 12 weeks from two weeks after the initial screening examination. All subjects had no particular instruction during the ingestion period and freely took their meals.
# In addition, SF-36 was practiced as health-associated QOL assessment. Regarding SF-36, examination was carried out a total of four times, which are before starting test food ingestion, after four weeks of ingestion, after eight weeks of ingestion and after twelve weeks of ingestion.
# [1] = test A 200 mg, before ingestion
# [2] = test B 100 mg, before ingestion
smiles,measurement,setting,value
"NCCCC(=O)O [GABA, γ-aminobutyric acid]",Body pain: difference between active food and placebo food groups,"test A 200 mg, 4 W",−2.1
same,Everyday role function (mental): difference between active food and placebo food groups,"test A 200 mg, 4 W",1.9
same,Everyday role function (physical): difference between active food and placebo food groups,"test A 200 mg, 4 W",2.8
same,General health: difference between active food and placebo food groups,"test A 200 mg, 4 W",0.1
same,Mental health: difference between active food and placebo food groups,"test A 200 mg, 4 W",3.6
same,Physical function: difference between active food and placebo food groups,"test A 200 mg, 4 W",0.4
same,Social life function: difference between active food and placebo food groups,"test A 200 mg, 4 W",1.1
same,Vitality: difference between active food and placebo food groups,"test A 200 mg, 4 W",5.5
same,Everyday role function (mental),"test A 200 mg, 4 w",53.4 ± 6.0
same,Everyday role function (physical),"test A 200 mg, 4 w",54.3 ± 3.5
same,General health,"test A 200 mg, 4 w",57.2 ± 7.9
same,Mental health,"test A 200 mg, 4 w",56.0 ± 6.7
same,Physical function,"test A 200 mg, 4 w",53.8 ± 6.2
same,Vitality,"test A 200 mg, 4 w",56.1 ± 7.3
same,Body pain: difference between active food and placebo food groups,"test A 200 mg, 8 W",−2.9
same,Everyday role function (mental): difference between active food and placebo food groups,"test A 200 mg, 8 W",1.1
same,Everyday role function (physical): difference between active food and placebo food groups,"test A 200 mg, 8 W",3.3
same,General health: difference between active food and placebo food groups,"test A 200 mg, 8 W",2.5
same,Mental health: difference between active food and placebo food groups,"test A 200 mg, 8 W",3.5
same,Physical function: difference between active food and placebo food groups,"test A 200 mg, 8 W",−0.7
same,Social life function: difference between active food and placebo food groups,"test A 200 mg, 8 W",0.9
same,Vitality: difference between active food and placebo food groups,"test A 200 mg, 8 W",4.8
same,Everyday role function (mental),"test A 200 mg, 8 w",52.7 ± 5.7
same,Everyday role function (physical),"test A 200 mg, 8 w",53.8 ± 4.0
same,General health,"test A 200 mg, 8 w",58.4 ± 7.4
same,Mental health,"test A 200 mg, 8 w",56.3 ± 7.3
same,Physical function,"test A 200 mg, 8 w",53.8 ± 6.1
same,Vitality,"test A 200 mg, 8 w",55.6 ± 8.3
same,Body pain: difference between active food and placebo food groups,"test A 200 mg, 12 W",−0.3
same,Everyday role function (mental): difference between active food and placebo food groups,"test A 200 mg, 12 W",1.5
same,Everyday role function (physical): difference between active food and placebo food groups,"test A 200 mg, 12 W",2.1
same,General health: difference between active food and placebo food groups,"test A 200 mg, 12 W",0.2
same,Mental health: difference between active food and placebo food groups,"test A 200 mg, 12 W",3.5
same,Physical function: difference between active food and placebo food groups,"test A 200 mg, 12 W",−1.0
same,Social life function: difference between active food and placebo food groups,"test A 200 mg, 12 W",−1.1
same,Vitality: difference between active food and placebo food groups,"test A 200 mg, 12 W",5.4
same,Everyday role function (mental),"test A 200 mg, 12 w",53.7 ± 5.4
same,Everyday role function (physical),"test A 200 mg, 12 w",54.2 ± 4.2
same,General health,"test A 200 mg, 12 w",58.4 ± 6.5
same,Mental health,"test A 200 mg, 12 w",57.0 ± 5.9
same,Physical function,"test A 200 mg, 12 w",53.6 ± 7.2
same,Vitality,"test A 200 mg, 12 w",57.1 ± 6.7
same,Body pain: difference between active food and placebo food groups,[1],−0.7
same,Everyday role function (mental): difference between active food and placebo food groups,[1],−0.1
same,Everyday role function (physical): difference between active food and placebo food groups,[1],1.3
same,General health: difference between active food and placebo food groups,[1],0.0
same,Mental health: difference between active food and placebo food groups,[1],0.3
same,Physical function: difference between active food and placebo food groups,[1],0.5
same,Social life function: difference between active food and placebo food groups,[1],2.1
same,Vitality: difference between active food and placebo food groups,[1],2.9
same,Everyday role function (mental),[1],52.6 ± 6.3
same,Everyday role function (physical),[1],54.2 ± 4.3
same,General health,[1],57.4 ± 7.4
same,Mental health,[1],54.1 ± 8.4
same,Physical function,[1],53.0 ± 6.1
same,Vitality,[1],54.6 ± 7.6
same,"scores regarding everyday role function (physical), GABA group compared to the placebo group","test A, after eight weeks of ingestion",significant improvement
same,"scores regarding emotional health, GABA group compared to the placebo group","test A, after four weeks of ingestion",significant improvement
same,"scores regarding energy, GABA group compared to the placebo group","test A, at least after four weeks of ingestion",significant improvement
same,Body pain: difference between active food and placebo food groups,"test B 100 mg, 4 W",−0.3
same,Everyday role function (mental): difference between active food and placebo food groups,"test B 100 mg, 4 W",1.5
same,Everyday role function (physical): difference between active food and placebo food groups,"test B 100 mg, 4 W",2.3
same,General health: difference between active food and placebo food groups,"test B 100 mg, 4 W",1.2
same,Mental health: difference between active food and placebo food groups,"test B 100 mg, 4 W",3.3
same,Physical function: difference between active food and placebo food groups,"test B 100 mg, 4 W",1.8
same,Social life function: difference between active food and placebo food groups,"test B 100 mg, 4 W",0.9
same,Vitality: difference between active food and placebo food groups,"test B 100 mg, 4 W",3.0
same,Everyday role function (mental),"test B 100 mg, 4 w",53.0 ± 5.5
same,Everyday role function (physical),"test B 100 mg, 4 w",53.8 ± 4.2
same,General health,"test B 100 mg, 4 w",58.3 ± 7.4
same,Mental health,"test B 100 mg, 4 w",55.8 ± 5.8
same,Physical function,"test B 100 mg, 4 w",55.2 ± 3.7
same,Vitality,"test B 100 mg, 4 w",53.7 ± 7.6
same,Body pain: difference between active food and placebo food groups,"test B 100 mg, 8 W",0.9
same,Everyday role function (mental): difference between active food and placebo food groups,"test B 100 mg, 8 W",2.1
same,Everyday role function (physical): difference between active food and placebo food groups,"test B 100 mg, 8 W",3.4
same,General health: difference between active food and placebo food groups,"test B 100 mg, 8 W",1.2
same,Mental health: difference between active food and placebo food groups,"test B 100 mg, 8 W",3.3
same,Physical function: difference between active food and placebo food groups,"test B 100 mg, 8 W",2.2
same,Social life function: difference between active food and placebo food groups,"test B 100 mg, 8 W",3.2
same,Vitality: difference between active food and placebo food groups,"test B 100 mg, 8 W",4.0
same,Everyday role function (mental),"test B 100 mg, 8 w",53.7 ± 3.9
same,Everyday role function (physical),"test B 100 mg, 8 w",53.9 ± 3.5
same,General health,"test B 100 mg, 8 w",57.2 ± 7.5
same,Mental health,"test B 100 mg, 8 w",56.1 ± 5.8
same,Physical function,"test B 100 mg, 8 w",56.6 ± 2.4
same,Vitality,"test B 100 mg, 8 w",54.8 ± 7.2
same,Body pain: difference between active food and placebo food groups,"test B 100 mg, 12 W",1.8
same,Everyday role function (mental): difference between active food and placebo food groups,"test B 100 mg, 12 W",1.7
same,Everyday role function (physical): difference between active food and placebo food groups,"test B 100 mg, 12 W",1.0
same,General health: difference between active food and placebo food groups,"test B 100 mg, 12 W",1.0
same,Mental health: difference between active food and placebo food groups,"test B 100 mg, 12 W",2.9
same,Physical function: difference between active food and placebo food groups,"test B 100 mg, 12 W",1.3
same,Social life function: difference between active food and placebo food groups,"test B 100 mg, 12 W",0.6
same,Vitality: difference between active food and placebo food groups,"test B 100 mg, 12 W",2.8
same,Everyday role function (mental),"test B 100 mg, 12 w",53.9 ± 4.3
same,Everyday role function (physical),"test B 100 mg, 12 w",53.1 ± 4.2
same,General health,"test B 100 mg, 12 w",59.2 ± 6.2
same,Mental health,"test B 100 mg, 12 w",56.4 ± 5.6
same,Physical function,"test B 100 mg, 12 w",55.9 ± 3.1
same,Vitality,"test B 100 mg, 12 w",54.5 ± 7.4
same,Body pain: difference between active food and placebo food groups,[2],1.3
same,Everyday role function (mental): difference between active food and placebo food groups,[2],1.0
same,Everyday role function (physical): difference between active food and placebo food groups,[2],0.7
same,General health: difference between active food and placebo food groups,[2],0.1
same,Mental health: difference between active food and placebo food groups,[2],2.7
same,Physical function: difference between active food and placebo food groups,[2],3.0
same,Social life function: difference between active food and placebo food groups,[2],3.7
same,Vitality: difference between active food and placebo food groups,[2],2.7
same,Everyday role function (mental),[2],53.7 ± 4.7
same,Everyday role function (physical),[2],53.5 ± 3.9
same,General health,[2],57.5 ± 7.1
same,Mental health,[2],56.5 ± 5.4
same,Physical function,[2],55.6 ± 3.5
same,Vitality,[2],54.4 ± 7.6
same,"scores regarding physical function, GABA group compared to the placebo group","test B, after eight weeks of ingestion",significant improvement
